The source of these data is patent publication US20140127194A1, “COMBINED PHARMACEUTICAL COMPOSITIONS FOR THE TREATMENT OF TUMORS” (HYD Rákkutató és Gyógyszerfejlesztö Kft., priority 2011, published 2014).

In assay [1] the test system is prostate cancer with bone metastasis. In words: Prostate cancer case reports: PSA tumor marker and remission versus DDW consumption. The format is in vivo, human. Particulars: patient, PSA over 1000 ng/mL, before start of DDW. The protocol:
FIG. 1: Data of a patient with prostate cancer and bone metastasis, with extremely high PSA level (1000 ng/mL). Beside conventional treatment, DDW was also applied. In spite of the potentially bad prognosis the patient remained in regression for 9 years. PSA level: left Y axis and broken line; DDW dose: right Y axis and solid line.
FIG. 2: patient with prostate cancer and extreme PSA levels. […] Interrupting the DDW cure caused increasing PSA levels, and after finishing DDW consumption in December 2009 PSA was soaring. Broken line: PSA level, solid line: DDW dose.
Patient 2 (FIG. 1) had bone metastasis in the early phase of the disease, PSA was over 1000 ng/mL. […] They started consuming DDW in April 2003, 640 days (=21.3 months) after diagnosing bone metastasis with 15.0 ng/mL PSA. They consumed DDW for nearly one year at DdU of 1.0. A break of 6 months followed this cure, during which the disease progressed and PSA increased from 1 to 4.34 ng/mL. A new DDW cure brought regression and PSA below 1 ng/mL. 4 years after diagnosis, Androcure was replaced with Suprefact. Further DDW treatments (see FIG. 1 for DdU values) PSA was decreased in the following 3 years and the patient had no complaints in spite of the existing bone metastasis and the generally bad prognosis. […]

The subject of assay [2] is chronic myeloid leukemia (CML). Description: Case report: chronic myeloid leukemia patient, DDW with Litaril, then STI 571 (Gleevec). In kind it is in vivo, human. The protocol: b/ In a young patient in 1998, chronic myeloid leukemia (CML) was diagnosed, and was medicated with Litaril because of high WBC count. […] In February 2001 the patient was enrolled in the clinical trial of the drug candidate STI 571 (Gleevec). By August 2001, bone marrow damage decreased to 66% from the previous 80%.
(§1) DdU units used in the treatment were determined as described in Example 1 and 2.

Another assay relates to kidney tumor. Description: Case report: kidney tumor patient, Sutent with and without DDW. In kind it is in vivo, human. As for the experimental part: c/ With another tyrosine kinase inhibiting agent, Sutent, a similar positive interaction was found. In one patient, kidney tumor was diagnosed in spring 2003 and was surgically removed. Up to spring 2006, three further operations were necessary because of the disease recidivating.
as §1

For a further assay, the system named is HT199 melanoma cell line. In words: In vitro growth of melanoma cells with DDW, doxorubicin and their combination. Particulars: 450 and 900 nM in normal (150 ppm D) medium. In kind it is cell-based. The protocol:
Curves 4 and 6 show the inhibition by DDW plus the mentioned two concentrations of doxorubicin.
In the experiment, the effect of DDW, doxorubicin, and their combination was tested on HT199 melanoma cell line.

In the next assay the test system is breast cancer. Particulars: Taxotere without DDW, general experience; cited from earlier work.

`C[C@]12CC[C@@H]3c4ccc(OC(=O)N(CCCl)CCCl)cc4CC[C@H]3[C@@H]1CC[C@@H]2OP(=O)(O)O` [Estracyt]: in assay [1], the PSA change result is given as “PSA was rapidly lowered”.
`Cc1ccc(NC(=O)c2ccc(CN3CCN(C)CC3)cc2)cc1Nc1nccc(-c2cccnc2)n1` [STI 571]: in assay [2] (one CML patient consuming DDW and on STI 571, April 2002), the disease status result is given as “fully negative”. In assay [2] (one CML patient consuming DDW, STI 571 from February 2001, by August 2001, previously 80%), this molecule displayed a bone marrow damage of 66%.
For `CC(=O)O[C@]1(C(C)=O)CC[C@H]2[C@@H]3C=C(Cl)C4=CC(=O)[C@@H]5C[C@@H]5[C@]4(C)[C@H]3CC[C@@]21C` [Androcure], in assay [1], the PSA change entry is listed as “PSA was rapidly lowered”.
On to `CCN(CC)CCNC(=O)c1c(C)[nH]c(/C=C2\C(=O)Nc3ccc(F)cc32)c1C` [Sutent], for which the tumor response entry in the assay with kidney tumor (one kidney tumor patient, Sutent without DDW, progression again in March 2007) is given as “efficient initially”; with kidney tumor (same patient, DDW in parallel with Sutent from autumn 2007), “the tumors shrank again”. Besides, the “tumor response on images” value in the assay with kidney tumor (same patient, DDW in parallel with Sutent, three years later) is “ongoing decrease of the tumor sizes”.
Regarding `COc1cccc2c1C(=O)c1c(O)c3c(c(O)c1C2=O)C[C@@](O)(C(=O)CO)C[C@@H]3O[C@H]1C[C@H](N)[C@H](O)[C@H](C)O1` [doxorubicin], the “effect on growth of melanoma cells” value in the assay with HT199 melanoma cell line is listed as “inhibitory effect”.
For `CC(=O)O[C@@]12CO[C@@H]1C[C@H](O)[C@@]1(C)C(=O)[C@H](O)C3=C(C)[C@@H](OC(=O)[C@H](O)[C@@H](NC(=O)OC(C)(C)C)c4ccccc4)C[C@@](O)([C@@H](OC(=O)c4ccccc4)[C@H]21)C3(C)C` [Taxotere, docetaxel], the MST in the assay with breast cancer is 20-22 months.
